In patent US8753875B2, “Compositions and means for diagnosing microbial infections” (priority 2007, dated 2014):
Like-named read-outs stand apart in the source and are kept apart here.

Experiments:
E. coli [1] = assay: Growth of E. coli in antibiotic compartments of the platform (FIG. 3); type: cell-based; conditions: illustrated E. coli of FIG. 3
Excerpt: The photos show growth of E. coli at different quantities of bacteria/ml urine.

S. saprophyticus [2] = assay: Growth on Flexicult plate, susceptibility/resistance to the five antibiotics (FIG. 4, Table A); type: cell-based
Excerpt: (§1) The kit was developed for urine culture in the primary health care setting. It is designed preferably as a nine cm Petri dish divided into six compartments: One larger compartment for quantitative analysis and five smaller compartments for susceptibility testing. The agar in each small compartment contains one of five antimicrobials (for Denmark and Scandinavia preferably: trimethoprim, sulfamethizole, ampicillin, nitrofurantoin and mecillinam (amdinocillin)) at a concentration adjusted to the breakpoint, such that growth in these compartments indicates resistance, and no growth indicates susceptibility. The Petri dish preferably has higher sides, approximately 2.48 cm, than the usual dish, i.e. ca. 1.48 cm. This allows a larger amount, maximum 100 ml, of urine to be poured onto the dish for inoculation.
(§2) Reading the susceptibility of the bacterial growth: Each bacterium (if more than one) is read individually: The growth in each of the antibiotic fields is compared with the growth on the control agar. […] If there is no growth (or substantially less than the control agar), then the bacterium is considered to be susceptible to the antibiotic. […] When nitrofurantoin and mecillinam are used as antibiotics, a few single colonies may be seen of the same type as the bacterium on the control agar: These are not considered to be resistant mutants but “persisters,” i.e. if retested they will appear susceptible. This is commonly seen also by disc diffusion especially for mecillinam.

P. aureginosa = assay: as above; type: cell-based
Excerpt: as §1, §2

Klebsiella spp. = assay: as above; type: cell-based
Excerpt: as §1, §2

E. coli [3] = assay: as above; type: cell-based
Excerpt: as §1, §2

Morganella spp. = assay: as above; type: cell-based
Excerpt: as §1, §2

Citrobacter spp. = assay: as above; type: cell-based
Excerpt: as §1, §2

E. faecium [4] = assay: as above; type: cell-based
Excerpt: as §1, §2

Candida spp. = assay: as above; type: cell-based
Excerpt: as §1, §2

Enterobacter spp = assay: as above; type: cell-based
Excerpt: as §1, §2

Proteus mirabilis = assay: as above; type: cell-based
Excerpt: as §1, §2

P. vulgaris [5] = assay: as above; type: cell-based
Excerpt: as §1, §2

E. faecalis [6] = assay: as above; type: cell-based
Excerpt: as §1, §2

S. agalactiae = system: S. agalactiae; set-up: key: Susceptible = S; Resistant = R; conditions: cited from earlier work
S. saprophyticus [7] = conditions: cited from earlier work
E. coli [8] = conditions: cited from earlier work
Candida sp. = system: Candida sp.; set-up: key: Susceptible = S; Resistant = R; conditions: cited from earlier work
Pseud. Aeruginosa = system: Pseud. Aeruginosa; set-up: key: Susceptible = S; Resistant = R; conditions: cited from earlier work
[9] = Stability of the antimicrobial in the semi-solid media; type: physicochemical; conditions: pH-value of the semi-solid media adjusted to 6.0
Excerpt: Stability of the antimicrobial in the semi-solid media may depend on the pH-value. The pH-value should preferably not exceed certain limits as this will influence the antimicrobial effect. The stability of Ampicillin and Mecillinam has been improved by adjusting the pH-value of the semi-solid media to 6.0.

E. faecium [10] = system: E. faecium; set-up: key: Susceptible = S; Resistant = R; conditions: cited from earlier work
E. coli [11] = system: E. coli; set-up: key: Susceptible = S; Resistant = R; conditions: cited from earlier work
Citrobacter = system: Citrobacter; set-up: key: Susceptible = S; Resistant = R; conditions: cited from earlier work
Enterobacter = system: Enterobacter; set-up: key: Susceptible = S; Resistant = R; conditions: cited from earlier work
P. mirabilis = conditions: cited from earlier work
E. faecalis [12] = system: E. faecalis; set-up: key: Susceptible = S; Resistant = R; conditions: cited from earlier work
Morganella = system: Morganella; set-up: key: Susceptible = S; Resistant = R; conditions: cited from earlier work
Klebsiella = system: Klebsiella; set-up: key: Susceptible = S; Resistant = R; conditions: cited from earlier work
P. vulgaris [13] = system: P. vulgaris; set-up: key: Susceptible = S; Resistant = R; conditions: cited from earlier work

Cc1nnc(NS(=O)(=O)c2ccc(N)cc2)s1 [Sulfamethizole]
resistant: resistant or susceptible (growth in antibiotic compartment) (E. coli [1])
R: Susceptibility = S or Resistance = R (P. aureginosa) | Susceptibility = S or Resistance = R (E. coli [3]) | Susceptibility = S or Resistance = R (E. faecium [4]) | Susceptibility = S or Resistance = R (Candida spp.) | Susceptibility = S or Resistance = R (Enterobacter spp) | Susceptibility = S or Resistance = R (E. faecalis [6])
S: Susceptibility = S or Resistance = R (S. saprophyticus [2]) | Susceptibility = S or Resistance = R (Klebsiella spp.) | Susceptibility = S or Resistance = R (Morganella spp.) | Susceptibility = S or Resistance = R (Citrobacter spp.) | Susceptibility = S or Resistance = R (Proteus mirabilis) | Susceptibility = S or Resistance = R (P. vulgaris [5])

CC1(C)S[C@@H]2[C@H](/N=C/N3CCCCCC3)C(=O)N2[C@H]1C(=O)O [Mecillinam, 6-Amidinopenicillanic acid derivatives; amdinocillin: 46-[[(hexahydro-1H-azepin-1-yl)methylene]amino]-3,3-dimethyl-7-oxo-, (2S,5R,6R)--Thia-1-azabicyclo[3.2.0]heptane-2-carboxylic acid]
0%: Antimicrobial resistance of E. coli (resistance in percent) (E. coli [8]; Luxembourg, n 24) | Antimicrobial resistance of E. coli (resistance in percent) (E. coli [8]; Norway, n 168) | Antimicrobial resistance of E. coli (resistance in percent) (E. coli [8]; Switzerland, n 122)
R: Normal susceptibility/resistance (S. agalactiae) | Normal susceptibility/resistance (Candida sp.) | Normal susceptibility/resistance (Pseud. Aeruginosa) | Normal susceptibility/resistance (E. faecium [10]) | Normal susceptibility/resistance (E. faecalis [12]) | Normal susceptibility/resistance (Morganella) | Normal susceptibility/resistance (P. vulgaris [13]) | Susceptibility = S or Resistance = R (P. aureginosa) | Susceptibility = S or Resistance = R (Morganella spp.) | Susceptibility = S or Resistance = R (Candida spp.) | Susceptibility = S or Resistance = R (Enterobacter spp) | Susceptibility = S or Resistance = R (Proteus mirabilis) | Susceptibility = S or Resistance = R (P. vulgaris [5])
1.0%: Antimicrobial resistance of E. coli (resistance in percent) (E. coli [8]; Spain, n 191)
S/R: Normal susceptibility/resistance (S. saprophyticus [7]) | Normal susceptibility/resistance (P. mirabilis)
1.5%: Antimicrobial resistance of E. coli (resistance in percent) (E. coli [8]; Belgium, n 137) | Antimicrobial resistance of E. coli (resistance in percent) (E. coli [8]; France, n 199) | Antimicrobial resistance of E. coli (resistance in percent) (E. coli [8]; The Netherlands, n 195)
2.2%: Antimicrobial resistance of E. coli (resistance in percent) (E. coli [8]; Germany, n 138)
2.3%: Antimicrobial resistance of E. coli (resistance in percent) (E. coli [8]; Portugal, n 86)
improved: stability in the semi-solid media [9]
1.7%: Antimicrobial resistance of E. coli (resistance in percent) (E. coli [8]; United Kingdom, n 180)
0.5%: Antimicrobial resistance of E. coli (resistance in percent) (E. coli [8]; Finland, n 182)
1.2%: Antimicrobial resistance of E. coli (resistance in percent) (E. coli [8]; Canada, n 166) | Antimicrobial resistance of E. coli (resistance in percent) (E. coli [8]; Denmark, n 85) | Antimicrobial resistance of E. coli (resistance in percent) (E. coli [8]; Total, n 2478)
S: Normal susceptibility/resistance (E. coli [11]) | Normal susceptibility/resistance (Citrobacter) | Normal susceptibility/resistance (Enterobacter) | Normal susceptibility/resistance (Klebsiella) | Susceptibility = S or Resistance = R (S. saprophyticus [2]) | Susceptibility = S or Resistance = R (Klebsiella spp.) | Susceptibility = S or Resistance = R (E. coli [3]) | Susceptibility = S or Resistance = R (Citrobacter spp.) | Susceptibility = S or Resistance = R (E. faecium [4]) | Susceptibility = S or Resistance = R (E. faecalis [6])
0.6%: Antimicrobial resistance of E. coli (resistance in percent) (E. coli [8]; Ireland, n 154)
susceptible: resistant or susceptible (growth in antibiotic compartment) (E. coli [1])
0.8%: Antimicrobial resistance of E. coli (resistance in percent) (E. coli [8]; Greece, n 132)
1.6%: Antimicrobial resistance of E. coli (resistance in percent) (E. coli [8]; Austria, n 126) | Antimicrobial resistance of E. coli (resistance in percent) (E. coli [8]; Sweden, n 193)
